Reference: article PMC8234620, “An Integrated Peptidomics and In Silico Approach to Identify Novel Anti-Diabetic Peptides in Parmigiano-Reggiano Cheese” (Biology, 2021)
Ends that are not written are not given here. Peptide text beside a SMILES is read from it.

Legend:
[1] = target: T1, rat intestinal DPP-IV (Rattus norvegicus, UniProt P14740); assay: Dipeptidyl peptidase IV (DPP-IV) assay; assay type: biochemical; conditions: synthetic peptides
T1 construct: 10 μL of rat intestinal DPP-IV (0.1 U/mL in the assay); from tissue; host or cells: rat intestine
T1 sequence (P14740 whole entry): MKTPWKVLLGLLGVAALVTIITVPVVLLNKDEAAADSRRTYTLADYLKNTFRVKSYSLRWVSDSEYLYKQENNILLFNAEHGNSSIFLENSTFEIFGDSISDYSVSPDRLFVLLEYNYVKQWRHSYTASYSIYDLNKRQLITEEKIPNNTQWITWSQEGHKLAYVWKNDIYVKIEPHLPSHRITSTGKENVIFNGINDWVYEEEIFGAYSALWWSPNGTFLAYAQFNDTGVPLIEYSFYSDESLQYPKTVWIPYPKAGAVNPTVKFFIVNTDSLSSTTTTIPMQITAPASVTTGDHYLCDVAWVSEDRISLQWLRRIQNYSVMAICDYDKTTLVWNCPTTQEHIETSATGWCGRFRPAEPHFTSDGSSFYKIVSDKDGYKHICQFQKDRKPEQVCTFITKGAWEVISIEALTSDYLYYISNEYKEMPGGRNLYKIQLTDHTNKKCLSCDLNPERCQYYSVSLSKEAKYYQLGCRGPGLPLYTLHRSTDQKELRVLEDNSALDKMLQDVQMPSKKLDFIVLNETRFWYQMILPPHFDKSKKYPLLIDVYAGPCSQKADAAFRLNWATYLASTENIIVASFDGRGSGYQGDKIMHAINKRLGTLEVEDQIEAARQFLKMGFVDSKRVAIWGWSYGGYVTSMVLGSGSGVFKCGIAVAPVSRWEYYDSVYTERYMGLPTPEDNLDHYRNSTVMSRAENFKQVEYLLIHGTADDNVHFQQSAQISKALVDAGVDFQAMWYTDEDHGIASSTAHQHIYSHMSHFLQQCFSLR
Protocol: DPP-IV assay was performed as described in Tagliazucchi et al.. Briefly, in a 96-well plate, 10 μL of rat intestinal DPP-IV (0.1 U/mL in the assay) were mixed with 145 μL of Tris-HCl buffer (pH 7.0; 0.1 mol/L) and 40 μL of different concentrations of water-soluble low-molecular weight peptide extracts. After 20 min of incubation at 37 °C, the reaction was started by the addition of 5 μL of glycine-proline-p-nitroanilide (6.4 mmol/L). The amount of released p-nitroanilide was determined after 20 min of incubation at 37 °C by reading at 405 nm in a microplate reader. Results were expressed as IC50 as reported above.
(§1) Selected peptides were then synthesized (Bio-Fab Research, Rome, Italy) and tested for their inhibitory activity against DPP-IV, α-glucosidase, and α-amylase. The assays were carried out as reported in Section 2.3. The results were expressed as IC50 values.

[2] = target: yeast α-glucosidase (Saccharomyces cerevisiae, UniProt P53341); assay: α-Glucosidase assay; assay type: biochemical; conditions: for inhibition at 1000 µM: read-out: percentage of inhibition of α-glucosidase; for IC50: synthetic peptides, n.a. = not active
yeast α-glucosidase, sequence (P53341 whole entry): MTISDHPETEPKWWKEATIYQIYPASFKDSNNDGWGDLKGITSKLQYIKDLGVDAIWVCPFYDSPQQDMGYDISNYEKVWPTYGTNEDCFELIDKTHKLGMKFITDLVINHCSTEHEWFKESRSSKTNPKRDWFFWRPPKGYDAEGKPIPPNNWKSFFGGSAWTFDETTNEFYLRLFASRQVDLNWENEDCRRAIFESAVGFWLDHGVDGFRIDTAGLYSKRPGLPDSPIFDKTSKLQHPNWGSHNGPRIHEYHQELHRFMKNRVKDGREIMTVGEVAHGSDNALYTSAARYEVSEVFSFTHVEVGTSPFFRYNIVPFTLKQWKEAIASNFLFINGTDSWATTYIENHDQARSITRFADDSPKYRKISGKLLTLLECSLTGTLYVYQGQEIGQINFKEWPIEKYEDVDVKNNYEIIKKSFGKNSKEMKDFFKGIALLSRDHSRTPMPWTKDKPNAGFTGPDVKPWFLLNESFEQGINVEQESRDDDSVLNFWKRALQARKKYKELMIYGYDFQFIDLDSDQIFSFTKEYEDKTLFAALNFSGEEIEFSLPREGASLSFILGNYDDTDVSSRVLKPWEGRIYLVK
Protocol: α-Glucosidase assay was performed as reported in Bellesia et al., adapted to a microplate reader. The reaction was performed by mixing 66.7 μL of potassium phosphate buffer (67 mmol/L, pH 6.8), 3.3 μL of glutathione 3 mmol/L, 20 μL of different concentrations of water-soluble low-molecular weight peptide extracts, and 5 μL of yeast α-glucosidase 0.2 U/mL. After 20 min of incubation at 37 °C, the reaction was started by the addition of 5 μL of p-nitrophenyl-glucose 5 mmol/L. After a further 20 min of incubation at 37 °C, the reaction was stopped by the addition of 150 μL of Na2CO3 100 mmol/L. The amount of released p-nitrophenol was determined by reading at 405 nm with a microplate reader. Results were expressed as IC50 as reported above.
as §1

[3] = tested on: angiotensin converting enzyme; conditions: cited from earlier work; for Bioactivity: ACE-inhibition: ref BIOPEP database and Milk Bioactive Peptides Database; for IC50 values against ACE: ref [47],[48],[49]
[4] = set-up: method as in BIOPEP database and Milk Bioactive Peptides Database; conditions: ref BIOPEP database and Milk Bioactive Peptides Database; cited from earlier work
[5] = set-up: method as in BIOPEP database and Milk Bioactive Peptides Database; conditions: ref BIOPEP database and Milk Bioactive Peptides Database; cited from earlier work; remark: listed apart in the source
[6] = tested on: DPP-IV; conditions: cited from earlier work; for Bioactivity: DPP-IV-inhibition: ref BIOPEP database and Milk Bioactive Peptides Database; for IC50: ref [41],[51],[52], read-out: IC50 DPP-IV, previously reported
[7] = set-up: method as in PMID 16899668, doi:10.1016/j.foodres.2015.12.007; conditions: spontaneously hypertensive rats; ref [48],[49]; cited from earlier work
[8] = set-up: method as in BIOPEP database and Milk Bioactive Peptides Database; conditions: ref BIOPEP database and Milk Bioactive Peptides Database; cited from earlier work; remark: listed apart in the source
[9] = set-up: method as in BIOPEP database and Milk Bioactive Peptides Database; conditions: ref BIOPEP database and Milk Bioactive Peptides Database; cited from earlier work; remark: listed apart in the source
[10] = tested on: α-glucosidase; conditions: cited from earlier work

## CC(C)C[C@H](N)C(=O)N1CCC[C@H]1C(=O)N1CCC[C@H]1C(=O)N[C@H](C(=O)O)[C@@H](C)O [LPPT] (H-LPPT-OH)
[1]
  IC50: 495.3 ± 3.6 µM

## O=C(O)[C@H](Cc1ccccc1)NC(=O)[C@@H]1CCCN1C(=O)[C@@H]1CCCN1 [PPF] (H-Pro-Pro-Phe-OH)
[2]
  inhibition at 1000 µM: 8.8 ± 1.3%
  IC50: > 1000 µM
[1]
  IC50: 142 ± 1.7 µM

## APFPE [APFPE]
[1]
  IC50: 49.5 ± 0.5 µM

## DKIHP (UniProt P02666 62-66, looked up, fragment) [β-casein f(47–51)]
[3]
  Bioactivity: ACE-inhibition: ACE-inhibition

## DKIHPF (UniProt P02666 62-67, looked up, fragment) [β-casein f(47–52)]
[3]
  Bioactivity: ACE-inhibition: ACE-inhibition

## DVPSERYLG [αS1-casein f(85–93)]
[3]
  Bioactivity: ACE-inhibition: ACE-inhibition

## EMPFPK (UniProt P02666 123-128, looked up, fragment) [β-casein f(108–113)]
[4]
  Bioactivity: Anti-microbial: Anti-microbial
[3]
  Bioactivity: ACE-inhibition: ACE-inhibition

## ENLLRF (UniProt P02662 33-38, looked up, fragment) [αS1-casein f(18–23)]
[3]
  Bioactivity: ACE-inhibition: ACE-inhibition

## FFVAP (UniProt P02662 38-42, looked up, fragment) [αS1-casein f(23–27)]
[3]
  Bioactivity: ACE-inhibition: ACE-inhibition

## FGK (UniProt P02662 47-49, looked up, fragment) [αS1-casein f(32–34)]
[3]
  Bioactivity: ACE-inhibition: ACE-inhibition

## FVAP (UniProt P02662 39-42, looked up, fragment) [αS1-casein f(24–27)]
[3]
  Bioactivity: ACE-inhibition: ACE-inhibition

## GTQY (UniProt P02662 185-187, looked up, fragment) [αS1-casein f(170–172)]
[5]
  Bioactivity: Antioxidant: Antioxidant
[3]
  Bioactivity: ACE-inhibition: ACE-inhibition

## IPPL (UniProt P02666 89-92, looked up, fragment) [β-casein f(74–77)]
[6]
  Bioactivity: DPP-IV-inhibition: DPP-IV-inhibition
  IC50: 429 µM

## IPPLTQTPV [β-casein f(74–82)]
[6]
  Bioactivity: DPP-IV-inhibition: DPP-IV-inhibition
  IC50: 465 µM

## IVP (UniProt P02662 86-88, looked up, fragment) [αS1-casein f(71–73)]
[3]
  Bioactivity: ACE-inhibition: ACE-inhibition

## LEE (UniProt P02666 18-20, looked up, fragment) [β-casein f(3–5)]
[3]
  Bioactivity: ACE-inhibition: ACE-inhibition

## LHLPLP (UniProt P02666 148-153, looked up, fragment) [β-casein f(133–138)]
[7]
  effect on systolic blood pressure: powerful decreasing agents of systolic blood pressure
[3]
  Bioactivity: ACE-inhibition: ACE-inhibition
  IC50 values against ACE: low

## LLY (UniProt P02666 206-208, looked up, fragment) [β-casein f(191–193)]
[8]
  Bioactivity: Immunomodulation: Immunomodulation
[5]
  Bioactivity: Antioxidant: Antioxidant
[9]
  Bioactivity: Anti-inflammatory: Anti-inflammatory

## LNF (UniProt P02663 176-178, looked up, fragment) [αS2-casein f(161–163)]
[3]
  Bioactivity: ACE-inhibition: ACE-inhibition

## LPLP (UniProt P02666 150-153, looked up, fragment) [β-casein f(135–138)]
[7]
  effect on systolic blood pressure: powerful decreasing agents of systolic blood pressure
[3]
  Bioactivity: ACE-inhibition: ACE-inhibition
  IC50 values against ACE: low

## LPQ
[6]
  Bioactivity: DPP-IV-inhibition: DPP-IV-inhibition
  IC50: 82 µM

## LVYPFP (UniProt P02666 73-78, looked up, fragment) [β-casein f(58–63)]
[3]
  Bioactivity: ACE-inhibition: ACE-inhibition

## LVYPFPGP [β-casein f(58–65)]
[3]
  Bioactivity: ACE-inhibition: ACE-inhibition

## PEL (UniProt P02662 162-164, looked up, fragment) [αS1-casein f(147–149)]
[5]
  Bioactivity: Antioxidant: Antioxidant

## PFP (UniProt P02666 76-78, looked up, fragment) [β-casein f(61–63)]
[10]; ref BIOPEP database and Milk Bioactive Peptides Database
  Bioactivity: α-glucosidase inhibition: α-glucosidase inhibition
[10]; ref [53], read-out: IC50 α-glucosidase, previously reported
  IC50: 8600 µM
[3]
  Bioactivity: ACE-inhibition: ACE-inhibition

## PFPE (UniProt P02662 42-45, looked up, fragment) [αS1-casein f(27–30)]
[3]
  Bioactivity: ACE-inhibition: ACE-inhibition

## PGPIP (UniProt P02666 78-82, looked up, fragment) [β-casein f(63–67)]
[3]
  Bioactivity: ACE-inhibition: ACE-inhibition

## PGPIPN (UniProt P02666 78-83, looked up, fragment) [β-casein f(63–68)]
[8]
  Bioactivity: Immunomodulation: Immunomodulation
[9]
  Bioactivity: Anti-inflammatory: Anti-inflammatory
[3]
  Bioactivity: ACE-inhibition: ACE-inhibition

## PLW (UniProt P02662 212-214, looked up, fragment) [αS1-casein f(197–199)]
[3]
  Bioactivity: ACE-inhibition: ACE-inhibition

## QEPV (UniProt P02666 209-212, looked up, fragment) [β-casein f(194–197)]
[8]
  Bioactivity: Immunomodulation: Immunomodulation

## QGP (UniProt P02663 116-118, looked up, fragment) [αS2-casein f(101–103)]
[3]
  Bioactivity: ACE-inhibition: ACE-inhibition

## QGPIVLNPWDQVKR [αS2-casein f(101–114)]
[5]
  Bioactivity: Antioxidant: Antioxidant

## RELEEL (UniProt P02666 16-21, looked up, fragment) [β-casein f(1–6)]
[5]
  Bioactivity: Antioxidant: Antioxidant

## SLPQ (UniProt P02666 84-87, looked up, fragment) [β-casein f(69–72)]
[3]
  Bioactivity: ACE-inhibition: ACE-inhibition

## TEDELQDKIHPF [β-casein f(41–52)]
[4]
  Bioactivity: Anti-microbial: Anti-microbial

## TKVIPYVRYL [αS2-casein f(198–207)]
[4]
  Bioactivity: Anti-microbial: Anti-microbial

## TVY (UniProt P02663 197-199, looked up, fragment) [αS2-casein f(182–184)]
[3]
  Bioactivity: ACE-inhibition: ACE-inhibition

## VEP (UniProt P02666 131-133, looked up, fragment) [β-casein f(116–118)]
[3]
  Bioactivity: ACE-inhibition: ACE-inhibition

## VLP
[3]
  Bioactivity: ACE-inhibition: ACE-inhibition

## VVPP (UniProt P02666 98-101, looked up, fragment) [β-casein f(83–86)]
[3]
  Bioactivity: ACE-inhibition: ACE-inhibition

## VVPPF [VVPPF]
[2]
  inhibition at 1000 µM: 22 ± 1.3%
  IC50: > 1000 µM
[1]
  IC50: 699 ± 11.1 µM

## VVVPPF [VVVPPF]
[2]
  inhibition at 1000 µM: 22.5 ± 1%
  IC50: > 1000 µM
[1]
  IC50: 610 ± 13.6 µM

## WIQP (UniProt P02663 208-211, looked up, fragment) [αS2-casein f(193–196)]
[3]
  Bioactivity: ACE-inhibition: ACE-inhibition
[6]
  Bioactivity: DPP-IV-inhibition: DPP-IV-inhibition
  IC50: 237 µM

## YLEQLLR [αS1-casein f(94–100)]
[4]
  Bioactivity: Anti-microbial: Anti-microbial

## YLG (UniProt P02662 106-108, looked up, fragment) [αS1-casein f(91–93)]
[5]
  Bioactivity: Antioxidant: Antioxidant

## YLGY (UniProt P02662 106-109, looked up, fragment) [αS1-casein f(91–94)]
[5]
  Bioactivity: Antioxidant: Antioxidant
[3]
  Bioactivity: ACE-inhibition: ACE-inhibition

## YQEP (UniProt P02666 208-211, looked up, fragment) [β-casein f(193–196)]
[3]
  Bioactivity: ACE-inhibition: ACE-inhibition

## YQEPVLGPVRGPFPIIV [β-casein f(193–209)]
[4]
  Bioactivity: Anti-microbial: Anti-microbial
[3]
  Bioactivity: ACE-inhibition: ACE-inhibition

## YQGPIVLNPWDQVKR [αS2-casein f(100–114)]
[8]
  Bioactivity: Immunomodulation: Immunomodulation
[4]
  Bioactivity: Anti-microbial: Anti-microbial
[3]
  Bioactivity: ACE-inhibition: ACE-inhibition

## YQL (UniProt P02662 169-171, looked up, fragment) [αS1-casein f(154–156)]
[5]
  Bioactivity: Antioxidant: Antioxidant
